Test results as given in patent US12605354B2, “Azelaic acid esters in the treatment or prevention of dyslipidemia and associated conditions” (NEW FRONTIER LABS, LLC, priority 2020, dated 2026).
Marks after values point to notes of the source that are not given here.

What was measured:
[1] = tested on: overweight to obese males; experiment: 21-day oral DEA study: blood lipid levels and lipid ratios; type: in vivo, human; conditions: for LDL/triglycerides / LDL/HDL / Triglycerides/HDL / Non-cholesterol HDL/HDL / Cholesterol, total/HDL / HDL cholesterol / LDL cholesterol / Non-cholesterol HDL / Triglycerides / Cholesterol, total: D21 post-treatment, 21 daily oral doses of 1 mg/kg, mean; for decrease of LDL/HDL: p=0.02; for Cholesterol/HDL, decrease / LDL/HDL, decrease: significant effect
Description: (§1) Seventeen subjects were recruited by sampling a large population at risk for T2D (according to convenience sample; a statistical method of drawing representative data) to measure the changes in glucose, lipid and insulin measurements after an OGTT after the subjects had been treated for 21 days.
(§2) The subjects were overweight to obese males with body mass indices (BMIs) ranging from 27.2 to 43.6 kg/m^2, glycated hemoglobin A1c (HbA1c) of 5.0-6.2% and insulin levels of 8.8-52 μU/mL. The study was conducted by Clinical Trials of Texas, Inc. in San Antonio, TX. The cohort represented a population at risk for the development of T2D. The study was restricted to male participants to control for the variability of insulin sensitivity associated with the menstrual cycle. The subjects received 21 daily oral doses (“q1d”) of 1 mg/kg DEA. An OGTT, in which 75 grams of glucose in a total volume of 300 mL was administered orally to subjects, was performed on Day 0 and again on Day 21 and glucose measurements performed at −30, −5 and 0 min, insulin measurements at −30 and 0 min, and both glucose measurements and insulin measurements at 30, 60, 90, 120 and 180 minutes, where “0 min” is the time at which the glucose solution was administered. The 180-minute time point was selected to gain an early insight into the possible signal of drug action. Blood lipid levels (triglycerides, cholesterol, HDL, non-cholesterol HDL and LDL) were measured before the onset of treatment on Day 0 and again on Day 21. The error of the assays was <5% [36].
(§3) The results of the various marker measurements at Day 0 and Day 21 were compared using both the paired Students T-test and the Wilcoxon signed rank test. The results of both calculations are provided; the p-value from the paired Student T-test first, followed by the p-value from the Wilcoxon signed rank test. Generalized Estimating Equations and bootstrapping were used to verify the results generated with other methods. Fasting glucose was calculated as the average of the −30, −5, and 0-minute measurements and fasting insulin was calculated as the average of the −30- and 0-minute measurements. Spearman's correlation coefficient was calculated for the relationship between A1c and pre-treatment fasting plasma glucose versus post-treatment fasting plasma glucose. Area under the curve (AUC) was calculated over the 180-minute time span of the OGTT. All analyses were performed using the open language engine R 3.4.4. Statistical significance was at the α=0.05 level.

[2] = tested on: overweight to obese males; experiment: 21-day oral DEA study: fasting insulin and OGTT insulin; type: in vivo, human; conditions: for AUC insulin: 180-minute OGTT, in µU·min/mL (unit assumed); for AUC insulin / Fasting insulin: D21 post-treatment, 21 daily oral doses of 1 mg/kg, mean
Description: as §1, §2, §3

CCOC(=O)CCCCCCCC(=O)OCC [DEA, diethyl azelate]
HDL, increase ([1]; 21-day study, group not stated): 8.7% increase | LDL/triglycerides ([1]; All (n = 17), D0 0.998): 0.893 | LDL/HDL ([1]; All (n = 17), D0 3.442, P < 0.05): 3.201* | Triglycerides/HDL ([1]; All (n = 17), D0 3.761): 3.907 | Non-cholesterol HDL/HDL ([1]; All (n = 17), D0 3.799, P < 0.05): 3.549* | Cholesterol, total/HDL ([1]; All (n = 17), D0 4.806, P < 0.05): 4.553* | HDL cholesterol ([1]; All (n = 17), D0 32.765): 34.412 mg/dL | LDL cholesterol ([1]; All (n = 17), D0 93.765): 89.765 mg/dL | Non-cholesterol HDL ([1]; All (n = 17), D0 117.412): 114.471 mg/dL | Triglycerides ([1]; All (n = 17), D0 118.588): 124 mg/dL | Cholesterol, total ([1]; All (n = 17), D0 150.118): 148.882 mg/dL | LDL/triglycerides ([1]; FPG <100 mg/dL (n = 8), D0 0.861): 0.887 | LDL/HDL ([1]; FPG <100 mg/dL (n = 8), D0 3.082): 2.892 | Non-cholesterol HDL/HDL ([1]; FPG <100 mg/dL (n = 8), D0 3.309): 3.098 | Triglycerides/HDL ([1]; FPG <100 mg/dL (n = 8), D0 3.693): 3.521 | Cholesterol, total/HDL ([1]; FPG <100 mg/dL (n = 8), D0 4.311): 4.089 | HDL cholesterol ([1]; FPG <100 mg/dL (n = 8), D0 31.25): 31.5 mg/dL | LDL cholesterol ([1]; FPG <100 mg/dL (n = 8), D0 101): 90.75 mg/dL | Non-cholesterol HDL ([1]; FPG <100 mg/dL (n = 8), D0 111.778): 114.333 mg/dL | Triglycerides ([1]; FPG <100 mg/dL (n = 8), D0 122.889): 127.667 mg/dL | Cholesterol, total ([1]; FPG <100 mg/dL (n = 8), D0 154.875): 146.125 mg/dL | LDL/triglycerides ([1]; FPG >100 mg/dL (n = 9), D0 1.152): 0.9 | Triglycerides/HDL ([1]; FPG >100 mg/dL (n = 9), D0 3.837): 4.342 | LDL/HDL ([1]; FPG >100 mg/dL (n = 9), D0 3.847): 3.549 | Non-cholesterol HDL/HDL ([1]; FPG >100 mg/dL (n = 9), D0 4.349): 4.057 | Cholesterol, total/HDL ([1]; FPG >100 mg/dL (n = 9), D0 5.362): 5.075 | HDL cholesterol ([1]; FPG >100 mg/dL (n = 9), D0 34.111): 37 mg/dL | LDL cholesterol ([1]; FPG >100 mg/dL (n = 9), D0 105): 103.444 mg/dL | Triglycerides ([1]; FPG >100 mg/dL (n = 9), D0 113.75): 119.875 mg/dL | Non-cholesterol HDL ([1]; FPG >100 mg/dL (n = 9), D0 123.75): 114.625 mg/dL | Cholesterol, total ([1]; FPG >100 mg/dL (n = 9), D0 145.889): 151.333 mg/dL | LDL/triglycerides ([1]; High A1c (n = 9), D0 0.954): 0.972 | LDL/HDL ([1]; High A1c (n = 9), D0 3.173, P < 0.01): 2.862** | Non-cholesterol HDL/HDL ([1]; High A1c (n = 9), D0 3.446): 3.108 | Triglycerides/HDL ([1]; High A1c (n = 9), D0 3.481): 3.096 | Cholesterol, total/HDL ([1]; High A1c (n = 9), D0 4.456, P < 0.05): 4.1* | HDL cholesterol ([1]; High A1c (n = 9), D0 37.889): 41.222 mg/dL | LDL cholesterol ([1]; High A1c (n = 9), D0 105): 103.444 mg/dL | Triglycerides ([1]; High A1c (n = 9), D0 129): 125.222 mg/dL | Non-cholesterol HDL ([1]; High A1c (n = 9), D0 130.667): 128.444 mg/dL | Cholesterol, total ([1]; High A1c (n = 9), D0 168.444): 169.667 mg/dL | LDL/triglycerides ([1]; Low A1c (n = 8), D0 1.048): 0.804 | LDL/HDL ([1]; Low A1c (n = 8), D0 3.744): 3.582 | Triglycerides/HDL ([1]; Low A1c (n = 8), D0 4.076): 4.82 | Non-cholesterol HDL/HDL ([1]; Low A1c (n = 8), D0 4.196): 4.046 | Cholesterol, total/HDL ([1]; Low A1c (n = 8), D0 5.2): 5.062 | HDL cholesterol ([1]; Low A1c (n = 8), D0 27): 26.75 mg/dL | LDL cholesterol ([1]; Low A1c (n = 8), D0 81.125): 74.375 mg/dL | Non-cholesterol HDL ([1]; Low A1c (n = 8), D0 102.5): 98.75 mg/dL | Triglycerides ([1]; Low A1c (n = 8), D0 106.875): 122.625 mg/dL | Cholesterol, total ([1]; Low A1c (n = 8), D0 129.5): 125.5 mg/dL | LDL, decrease ([1]; all): 4.3% | decrease of LDL/HDL ([1]; all 17 subjects, p=0.011): 6.46% | HDL and non-cholesterol HDL ([1]; all subjects): non-significantly affected by the treatment | Cholesterol/HDL, decrease ([1]; all): 5.4% | LDL/HDL, decrease ([1]; all): 6.5% | effect on total cholesterol, LDL, HDL, non-cholesterol HDL, and triglycerides considered singly ([1]; entire cohort): did not exert statistically significant effects on any endpoint considered singly | decrease of the ratio of total cholesterol/HDL ([1]; entire cohort, p=0.025, p=0.041): 5.36% | decrease of non-cholesterol HDL/HDL ratio ([1]; entire cohort, p=0.025, p=0.057): 6.6% | LDL, decrease ([1]; high A1c): 2% | decrease of median total cholesterol ([1]; high A1c group): 1 mg/dL | decrease of the ratio of triglycerides/HDL ([1]; high A1c group): 11% | ratio of triglycerides/HDL post-treatment ([1]; high A1c group, from 3.4): 3.0 | LDL trend ([1]; high A1c group, less so in the low A1c group, normal <100 mg/dL): decreasing trend toward normal values | decrease of the ratio of total cholesterol/HDL ([1]; high A1c group, p=0.017, p=0.068): 7.99% | decrease of non-cholesterol HDL/HDL ratio ([1]; high A1c group, p=0.025, p=0.074): 9.8% | decrease of LDL/HDL ([1]; high A1c subjects, 21-day study (3 weeks), p=0.008): 9.8% | Cholesterol/HDL, decrease ([1]; high A1c): 8% | LDL/HDL, decrease ([1]; high A1c): 9.8% | elevated triglycerides post-treatment ([1]; including two high A1c subjects with abnormal triglycerides >150 before treatment): decreased post-treatment to normal levels in 8 subjects | increase of the ratio of triglycerides/HDL ([1]; low A1c): 15% | increase of median total cholesterol ([1]; low A1c group): 9 mg/dL | ratio of triglycerides/HDL post-treatment ([1]; low A1c, from 3.9): 4.6 | abnormal total cholesterol (>200 mg/dL) post-treatment ([1]; two subjects in the high A1c group): decreased or returned to normal levels | AUC insulin ([2]; All (n = 17), D0 24963): 26834 | AUC insulin ([2]; FPG <100 mg/dL (n = 8), D0 22215): 27461 | AUC insulin ([2]; FPG >100 mg/dL (n = 9), D0 27405): 26275 | AUC insulin ([2]; High A1c (n = 9), D0 27055): 25988 | AUC insulin ([2]; Low A1c (n = 8), D0 22609): 27785 | Fasting insulin ([2]; All (n = 17), D0 26.082): 25.894 μU/mL | Fasting insulin ([2]; FPG <100 mg/dL (n = 8), D0 20.212): 20.95 μU/mL | Fasting insulin ([2]; FPG >100 mg/dL (n = 9), D0 31.3): 30.289 μU/mL | Fasting insulin ([2]; High A1c (n = 9), D0 30.411): 28.9 μU/mL | Fasting insulin ([2]; Low A1c (n = 8), D0 21.212): 22.512 μU/mL | decrease of fasting insulin ([2]; all 17 subjects, p=0.916, p=0.963): 0.7 μU/mL | decrease of median insulin area under the curve (AUC) ([2]; high A1c group, not statistically significant): 1663.5 | decrease of fasting insulin ([2]; high A1c group, p=0.916, p=0.963): 0.84 μU/mL | decrease of fasting insulin ([2]; high fasting plasma glucose group, p=0.752, p=0.855): 2.97 μU/mL | increase of median insulin area under the curve (AUC) ([2]; low A1c group, not statistically significant): 3380.25 | decrease of fasting insulin ([2]; remaining 16 subjects (subject #1 excluded), p=0.007, 0.009): 13.4% | average fasting insulin post-treatment ([2]; subject #1, outlier in the high A1c group, increased from 77.45 pre-treatment): 96.15 μU/mL | median decrease of fasting insulin ([2]; subset of 8 subjects (#2-4, 8-11, and 13)): 42.5% | decrease of mean fasting insulin ([2]; subset of 8 subjects (#2-4, 8-11, and 13), p=0.004, p=0.008): 37.8%
